Experimental data from publication PMC8777613, “Effect of Hydroxyl Groups Esterification with Fatty Acids on the Cytotoxicity and Antioxidant Activity of Flavones” (Molecules, 2022).

How the values were obtained:
[1] = system: human prostate cancer cells (PC3); test: MTT dye reduction viability test, PC3; format: cell-based; conditions: for IC50 / viability at 10 µM / viability at 20 µM / viability at 40 µM / viability at 60 µM / viability at 80 µM / viability at 100 µM: Homo sapiens; for IC50: 72 h exposure, MTT, mean ± SD, read-out: Cytotoxic activity IC50, PC3; for viability at 10 µM: PC3, 10 µM; for viability at 10 µM / viability at 20 µM / viability at 40 µM / viability at 60 µM / viability at 80 µM / viability at 100 µM: representative MTT result (Table S1 A); for viability at 20 µM: PC3, 20 µM; for viability at 40 µM: PC3, 40 µM; for viability at 60 µM: PC3, 60 µM; for viability at 80 µM: PC3, 80 µM; for viability at 100 µM: PC3, 100 µM, read-out: Cells viability
Experimental: (§1) We have chosen two types of cell culture lines: human prostate cancer cells (PC3) and normal human immortal keratinocyte cells (HaCaT) (Table 1).
(§2) Human prostate cancer cells (PC3) and human immortal keratinocyte cell line from adult human skin (HaCaT) were obtained from American Type Culture Collection (Teddington, UK) and cultured according to its instructions RPMI 1640 (L0490) medium or DMEM (L0102) medium, respectively, in a 95% air and 5% CO2 humidified incubator at 37 °C. Both media (Biowest) were supplemented with 10% fetal bovine serum (FBS), 100 U/mL penicillin and 100 μg/mL streptomycin. 10 mM stock solutions of tested compounds in DMSO were prepared.
(§3) To assess the cells growth inhibition, the MTT dye reduction test was preformed based on the method described by Präbst et al.. Both PC3 and HaCaT cells (1 × 10^3/well) were seeded into 96-well plates and incubated for 24 h to attach to the bottom of the well in appropriate medium (200 μL) and treated with tested compounds (0–100 μM). The medium with compounds was removed after 72 h and MTT (0.5 mg/mL) in fresh growth medium without serum was added to each well. The plates were incubated in dark for 4 h at 37 °C. Then, the solution in each well was removed and refilled with 100 μL DMSO: isopropanol (1:1) to dissolve formazon crystals. The optical density was measured with an UVM 340 (ASYS Hitech GmbH, Austria) microplate reader at 570 nm. Replicates of three wells for each dosage, including vehicle control, were analyzed for each experiment. The experiments were conducted in triplicate. The results are expressed as IC50 values. The value of IC50 was estimated using CompuSyn version 1.0.

[2] = MTT dye reduction viability test, HaCaT; format: cell-based, human; conditions: human; for IC50 at 72 h / viability at 72 h, 10 µM / viability at 72 h, 20 µM / viability at 72 h, 40 µM / viability at 72 h, 60 µM / viability at 72 h, 80 µM / viability at 72 h, 100 µM: HaCaT cells (immortal keratinocytes)
Experimental: as §1, §2, §3

[3] = system: human immortal keratinocyte cells (HaCaT); test: MTT dye reduction viability test, HaCaT; format: cell-based
Experimental: as §1, §2, §3

rat brain homogenate = test: Lipid peroxidation (MDA/TBA) induced by FeCl2 and ascorbic acid; format: biochemical; conditions: 10 µM compound; for MDA concentration: oxidation by 0.1% FeCl2 and 1 mM ascorbic acid, 1 h 37 °C, control 9.644 ± 1.570
Experimental: The antioxidant potential of the new flavone derivatives was assessed based on the analysis of malondialdehyde concentration formed as a product of lipid oxidation stimulated by iron (II) ions.
After preparation, the brain was placed on an ice plate and washed with cold 0.9% NaCl. 10% (m/v) brain solution was obtained by homogenization in cold 10 mM TRIS-HCl buffer, pH = 7.5. The homogenate was centrifuged (2000 rpm, 10 min, 4 °C) to obtain supernatant 1 (S1).
100 µM stock solutions of test compounds in DMSO were prepared. The test compound solution was added to a […] S1 homogenate to a final concentration of 10 µM.
The oxidation reaction was induced by adding to the samples with or without the test compounds freshly prepared solutions: 0.1% FeCl2 (0.2 mL) and 1 mM ascorbic acid (0.4 mL). After incubation for 1 h at 37 °C, the reaction was stopped by adding 8.1% sodium dodecyl sulfate (SDS) solution. In order to determine the concentration of MDA, the acetic acid/HCl buffer at pH = 3.4 and 120 μL of 0.8% thiobarbituric acid (TBA) solution at pH = 6 were added to the samples. The samples were incubated for 1 h at 100 °C. After incubation, the samples were cooled on ice and centrifuged for 10 min at 4000 RPM. The absorbance was measured at a wavelength of 532 nm. Blank content: 0.5 mL of acetate buffer + 0.5 mL of TBA solution.
Calculation of malondialdehyde (MDA) concentration (Equation (1)):(1) MDA concentration=∆ A532 nm × 1.56 ×10^−6 [nmol MDA/h/g tissue]

[4] = 72 h exposure, MTT, mean ± SD, read-out: Cytotoxic activity IC50, HaCaT
[5] = HaCaT, 100 µM, 72 h, representative MTT result (Table S1 B), read-out: Cells viability
[6] = HaCaT, 10 µM, 72 h, representative MTT result (Table S1 B)
[7] = HaCaT, 20 µM, 72 h, representative MTT result (Table S1 B)
[8] = HaCaT, 40 µM, 72 h, representative MTT result (Table S1 B)
[9] = HaCaT, 60 µM, 72 h, representative MTT result (Table S1 B)
[10] = HaCaT, 80 µM, 72 h, representative MTT result (Table S1 B)

Compound: O=c1cc(-c2ccccc2)oc2cc(O)ccc12 [7-Hydroxy-Flavone, 7-hydroxy-flavone, reference compound]
- IC50 [1]: > 100 µM
- viability at 10 µM ([1]; 72 h): 123%
- viability at 20 µM ([1]; 72 h): 117%
- viability at 40 µM ([1]; 72 h): 111%
- viability at 60 µM ([1]; 72 h): 95.4%
- viability at 80 µM ([1]; 72 h): 65%
- viability at 100 µM ([1]; 72 h): 62.7%
- reduction of PC3 cells viability compared to control cells ([1]; PC3, 72 h, concentration not given): 38%
- IC50 [2, 4]: > 100 µM
- viability at 10 µM ([2]; HaCaT, 10 µM, 72 h, representative MTT result (Table S1 B), read-out: Cells viability): 93.8%
- viability at 20 µM ([2]; HaCaT, 20 µM, 72 h, representative MTT result (Table S1 B), read-out: Cells viability): 65.8%
- viability at 40 µM ([2]; HaCaT, 40 µM, 72 h, representative MTT result (Table S1 B), read-out: Cells viability): 69.7%
- viability at 60 µM ([2]; HaCaT, 60 µM, 72 h, representative MTT result (Table S1 B), read-out: Cells viability): 96.2%
- viability at 80 µM ([2]; HaCaT, 80 µM, 72 h, representative MTT result (Table S1 B), read-out: Cells viability): 97.2%
- viability at 100 µM [2, 5]: 92.4%
- cytotoxic activity towards HaCaT cells (in words) ([3]; HaCaT, 0–100 μM, 72 h): did not exhibit cytotoxic activity
- MDA concentration (rat brain homogenate): 7.702 ± 1.080 mM × 10^−3
- reduction of the level of MDA compared to the control sample (rat brain homogenate; rat brain homogenate): 20.14%

Compound: CCCCCCCCCCCCCCCCCC(=O)Oc1ccc2c(=O)cc(-c3ccccc3)oc2c1 [7-Stearic-Flavone, 7-hydroxy-flavone stearic ester]
- IC50 [1]: 33.2 ± 4.81 µM
- viability at 10 µM ([1]; 72 h): 100%
- viability at 20 µM ([1]; 72 h): 87.7%
- viability at 40 µM ([1]; 72 h): 41.8%
- viability at 60 µM ([1]; 72 h): 32.2%
- viability at 80 µM ([1]; 72 h): 47.9%
- viability at 100 µM ([1]; 72 h): 27.5%
- IC50 at 72 h [2, 4]: 45.6 ± 7.2 µM
- viability at 72 h, 10 µM [2, 6]: 95.8%
- viability at 72 h, 20 µM [2, 7]: 65.3%
- viability at 72 h, 40 µM [2, 8]: 59.1%
- viability at 72 h, 60 µM [2, 9]: 39.8%
- viability at 72 h, 80 µM [2, 10]: 35.7%
- viability at 72 h, 100 µM [2, 5]: 20.7%
- MDA concentration (rat brain homogenate): 8.151 ± 0.343 mM × 10^−3
- melting point: 84.5 to 85.7 °C

Compound: CC=CC=CC(=O)Oc1ccc2c(=O)cc(-c3ccccc3)oc2c1 [7-Sorbic-Flavone, 7-hydroxy-flavone sorbic ester]
- IC50 [1]: 94.3 ± 4.24 µM
- viability at 10 µM ([1]; 72 h): 84%
- viability at 20 µM ([1]; 72 h): 80.9%
- viability at 40 µM ([1]; 72 h): 93.6%
- viability at 60 µM ([1]; 72 h): 74.5%
- viability at 80 µM ([1]; 72 h): 69.6%
- viability at 100 µM ([1]; 72 h): 75.2%
- IC50 at 72 h [2, 4]: 50.8 ± 2.48 µM
- viability at 72 h, 10 µM [2, 6]: 97.5%
- viability at 72 h, 20 µM [2, 7]: 87.2%
- viability at 72 h, 40 µM [2, 8]: 80.1%
- viability at 72 h, 60 µM [2, 9]: 41%
- viability at 72 h, 80 µM [2, 10]: 57.4%
- viability at 72 h, 100 µM [2, 5]: 43.7%
- MDA concentration (rat brain homogenate): 8.361 ± 0.050 mM × 10^−3
- melting point: 137.8 to 139.7 °C

Compound: CCCCCCCCCCCCCCCCCC(=O)Oc1ccc2c(c1)C(=O)CC(c1ccccc1)O2 (stereo not shown) [6-Stearic-Flavanone, 6-hydroxy-flavanone stearic ester]
- IC50 [1]: > 100 µM
- viability at 10 µM ([1]; 72 h): 96.5%
- viability at 20 µM ([1]; 72 h): 106%
- viability at 40 µM ([1]; 72 h): 99.6%
- viability at 60 µM ([1]; 72 h): 93.9%
- viability at 80 µM ([1]; 72 h): 93.6%
- viability at 100 µM ([1]; 72 h): 93.7%
- cytotoxic potential in PC3 cells (in words) ([1]; PC3, 0–100 μM, 72 h): no cytotoxic potential
- IC50 at 72 h [2, 4]: 40.6 ± 4.21 µM
- viability at 72 h, 10 µM [2, 6]: 95.4%
- viability at 72 h, 20 µM [2, 7]: 82.5%
- viability at 72 h, 40 µM [2, 8]: 54.7%
- viability at 72 h, 60 µM [2, 9]: 47.8%
- viability at 72 h, 80 µM [2, 10]: 32.5%
- viability at 72 h, 100 µM [2, 5]: 11.7%
- IC50 [3, 4]: 40.6 ± 4.21 µM
- MDA concentration (rat brain homogenate): 7.875 ± 0.343 mM × 10^−3
